Experimental data from patent US20030158250A1, “Agents correcting gene expression regulatory error” (priority 2000, published 2003).

Key:
Type in all cases: cell-based
[1] = tested on: Nef-associated factor-1 (NAF1); experiment: RT-PCR expression level of NAF1 gene in monocytes; settings: human monocytes, 30 PCR cycles
Description: (§1) Four-hundred milliliters of blood was collected from a human normal individual donor. The collected blood was diluted 2-folds with PBS(−), overlaid on Ficoll-paque (manufactured by Pharmacia), and centrifuged at 500×g for 20 minutes. The peripheral blood mononuclear cells (PBMCs) in the intermediate layer was collected with a pipette, and washed with RPMI 1640 medium (manufactured by Bio Whittaker). The collected PBMCs was suspended in a storage solution of 90% FCS (manufactured by JRH Biosciences)/10% dimethyl sulfoxide, and stored in liquid nitrogen. During the experiment, these stored PBMCs were rapidly melted in water bath at 37° C., and washed with RPMI 1640 medium containing 10 μg/ml Dnase (manufactured by Calbiochem). Thereafter, the number of living cells was calculated by trypan blue staining method, and subjected to each experiment.
(§2) PBMCs were suspended in RPMI 1640 medium containing 5% human serum of blood type-AB, 0.1 mM nonessential amino acid, 1 mM sodium pyruvate, 2 mM L-glutamine (hereinabove manufactured by Bio Whittaker), 10 mM HEPES (manufactured by nakalai tesque), and 1% streptomycin-penicillin (manufactured by Gibco BRL) (hereinafter simply referred to as “5HRPMI medium”) so as to have a concentration of 4×10^6 cells/ml. Thereafter, the suspension was spread on a 6-well cell culture plate (manufactured by Falcon) in a volume of 3 ml/well, and the cells were incubated in a wet-type incubator at 37° C. and 5% CO2 for 1.5 hours. After 1.5 hours, the non-adherent cells were removed by suction, and each well was washed with RPMI 1640 medium, and 2 ml of the 5HRPMI medium was added to the wells, to give monocytes.
(§3) To the monocytes obtained above was added in each well 8 μl of an aqueous DGE solution, or 8 μl of water as a control, and the cells were incubated in a wet-type incubator at 37° C. and 5% CO2 for 5 hours. Thereafter, with addition of 2 μl of a 1 μg/ml aqueous LPS solution or 2 μl of a 25 μM TPA dimethyl sulfoxide solution to each well, or with addition of neither of these substances thereto, the cells were cultured for additional 4 hours. Thereafter, RNA was prepared from each cell in accordance with the description of the kit using RNeasy Mini Kit (manufactured by QIAGEN, 74104). The group with addition of water alone or the aqueous DGE solution alone to the cells was set as a negative control, and the group with addition of water and the aqueous LPS solution or the aqueous TPA solution to the cells was set as a positive control.
(§4) A liquid mixture having a total volume of 60 μl of 0.5 μg of RNA prepared above, 10 mM Tris-HCl (pH 8.3), 50 mM KCl, 5 mM MgCl2, 1 mM dNTP mixtures, 150 pmol of Random 6 mers, 60 U Ribonuclease Inhibitor (manufactured by Takara Shuzo Co., Ltd., 2310A), and 15 U Reverse Transcriptase XL (AMV) (manufactured by Takara Shuzo Co., Ltd., 2620A) were incubated at 30° C. for 10 minutes and thereafter at 42° C. for 1 hour using a thermal cycler (GeneAmp PCR System 9600, manufactured by Applied Biosystems), and the mixture was heated at 99° C. for 5 minutes to deactivate the enzyme, to give cDNA.
(§5) Oligonucleotide primers for reaction of PCR were designed based on mRNA nucleotide sequence of each gene listed in the following tables, and synthesized in the same manner as above. In Tables 4 and 5, each gene evaluated in this Example, GenBank Accession NO, the name of oligonucleotide primers and SEQ ID NOs of the primers in Sequence Listing were listed. […]

[2] = tested on: properdin P factor, complement (PFC); experiment: RT-PCR expression level of PFC gene in monocytes; settings: human monocytes, 35 PCR cycles
Description: as §1, §2, §3, §4, §5

[3] = tested on: interleukin-7 receptor (IL-7r); experiment: RT-PCR expression level of IL-7r gene in monocytes; settings: human monocytes, 30 PCR cycles
Description: as §1, §2, §3, §4, §5

RANTES mRNA = experiment: RT-PCR of RANTES mRNA in monocytes; settings: human monocytes
Description: as §1
PBMCs were suspended in RPMI 1640 medium containing 5% human serum of blood type-AB, 0.1 mM nonessential amino acid, 1 mM sodium pyruvate, 2 mM L-glutamine (hereinabove manufactured by Bio Whittaker), 10 mM HEPES (manufactured by nakalai tesque), and 1% streptomycin-penicillin (manufactured by Gibco BRL) (hereinafter simply referred to as “5HRPMI medium”) so as to have a concentration of 4×10^6 cells/ml. […]

[4] = tested on: migration inhibitory factor-related protein-8 (MRP8); experiment: RT-PCR expression level of MRP8 gene in monocytes; settings: human monocytes, 30 PCR cycles
Description: as §1, §2, §3, §4, §5

[5] = tested on: myeloid leukemia cell differentiation protein-1 (MCL1); experiment: RT-PCR expression level of MCL1 gene in monocytes; settings: human monocytes, 30 PCR cycles
Description: as §1, §2, §3, §4, §5

lyzozyme (Lyz) = experiment: RT-PCR expression level of Lyz gene in monocytes; settings: human monocytes, 30 PCR cycles
Description: as §1, §2, §3, §4, §5

CD37 antigen (CD37) = experiment: RT-PCR expression level of CD37 gene in monocytes; settings: human monocytes, 35 PCR cycles
Description: as §1, §2, §3, §4, §5

interleukin-1α (IL-1α) = experiment: RT-PCR expression level of IL-1α gene in monocytes; settings: human monocytes, 30 PCR cycles
Description: as §1, §2, §3, §4, §5

[6] = substance added alone, Con. (water) +
[7] = substance added alone, Con. (water) +/−
[8] = L + D: DGE and LPS, LPS alone ++
[9] = T + D: DGE and TPA, TPA alone +/−
[10] = L + D: DGE and LPS, LPS alone −
[11] = T + D: DGE and TPA, TPA alone +
[12] = L + D: DGE and LPS, LPS alone +/−

lipopolysaccharide [LPS, reference compound]
expression level of NAF1 gene [1, 6]: ++
expression level of PFC gene [2, 6]: −
expression level of IL-7r gene [3, 7]: ++
amplification of band ascribed to RANTES mRNA, stimulant alone (RANTES mRNA; LPS alone, 4 hours, RT-PCR): induction
expression level of MRP8 gene [4, 6]: +/−
expression level of MCL1 gene [5, 6]: +/−
expression level of Lyz gene (lyzozyme (Lyz); [6]): +/−
expression level of CD37 gene (CD37 antigen (CD37); [7]): −
expression level of IL-1α gene (interleukin-1α (IL-1α); [7]): +++

O=C1C=CC(CO)OC1O [DGE, L-glycero-1,5-epoxy-1αβ,6-dihydroxy-cis-hex-3-en-2-one]
expression level of NAF1 gene [1, 8]: +/−
expression level of NAF1 gene [1, 9]: −
expression level of NAF1 gene [1, 6]: −
expression level of PFC gene [2, 10]: +
expression level of PFC gene [2, 11]: +
expression level of PFC gene [2, 6]: +
expression level of IL-7r gene [3, 8]: −
expression level of IL-7r gene ([3]; T + D: DGE and TPA, TPA alone −): −
expression level of IL-7r gene [3, 7]: −
induction of RANTES mRNA by LPS, effect of DGE (RANTES mRNA; DGE 5 hours, then LPS 4 hours, RT-PCR band): inhibited
expression level of MRP8 gene [4, 12]: +
expression level of MRP8 gene [4, 9]: +
expression level of MRP8 gene [4, 6]: +
expression level of MCL1 gene [5, 12]: +
expression level of MCL1 gene [5, 11]: +
expression level of MCL1 gene [5, 6]: +
expression level of Lyz gene (lyzozyme (Lyz); [12]): +
expression level of Lyz gene (lyzozyme (Lyz); [9]): +
expression level of Lyz gene (lyzozyme (Lyz); [6]): +
expression level of CD37 gene (CD37 antigen (CD37); [10]): +
expression level of CD37 gene (CD37 antigen (CD37); [9]): +/−
expression level of CD37 gene (CD37 antigen (CD37); [7]): +/−
expression level of IL-1α gene (interleukin-1α (IL-1α); L + D: DGE and LPS, LPS alone +++): +/−
expression level of IL-1α gene (interleukin-1α (IL-1α); [11]): −
expression level of IL-1α gene (interleukin-1α (IL-1α); [7]): −

12-o-tetradecanoylphorbol 13-acetate [TPA, reference compound]
expression level of NAF1 gene [1, 6]: +/−
expression level of PFC gene [2, 6]: +
expression level of IL-7r gene [3, 7]: −
expression level of MRP8 gene [4, 6]: +/−
expression level of MCL1 gene [5, 6]: +
expression level of Lyz gene (lyzozyme (Lyz); [6]): +/−
expression level of CD37 gene (CD37 antigen (CD37); [7]): +/−
expression level of IL-1α gene (interleukin-1α (IL-1α); [7]): +
